According to patent US20250188162A1, “INHIBITOR OF INTERLEUKIN-1 RECEPTOR TYPE 1 FOR USE IN THE TREATMENT OF CANCER” (Buzzard Pharmaceuticals AB, priority 2022, published 2025):

Assays:
[1] = system: non-small cell lung cancer (NSCLC); settings: second/third-line with docetaxel, irrespective of histologic subtype and driver mutation; cited from earlier work
[2] = system: incident lung cancer; settings: exploratory analysis of CANTOS; cited from earlier work
[3] = system: NF-κB; test: NF-κB ligand screen in pNGL-expressing RAW264.7 macrophages; type: cell-based, murine; settings: recombinant VCAN 1 nM, compared with LPS 1 μg/mL
From the text: (§1) FIG. 4. Tumor-secreted versican drives macrophage IKKβ, metastasis, and is a cancer biomarker. (A-E) Kras-mutant and wild-type cancer cell RNA and supernatants were subjected to microarray and LC-MSMS analyses, respectively. Shown are experimental design (A), top-20 over-represented transcripts (B) and secretory proteins (C), and Vcan/VCAN mRNA/protein expression (D, E). n=2-3/group; P, probability, two-way ANOVA; Bold letters, false discovery rate (FDR) q<0.05 compared with Kras-wild-type cells, two-stage linear step-up procedure of Benjamini, Hochberg, and Yekutieli. (F, G) Representative bioluminescent images (F) and data summary (G) from pNGL RAW264.7 cells exposed to lipopolysaccharide (LPS; 1 μg/mL) or recombinant proteins (1-2 nM). n=5/group; P, probability, two-way ANOVA; ****, P<0.0001 compared with other groups, Bonferroni post-tests. (H) Immunoblots of mouse BMDM exposed to VCAN. n=5/group. (I-M) LLC cells stably expressing control (shC) and anti-Vcan (shVcan) shRNA were validated and injected intrapleurally into NGL mice. […]
Mice were imaged for NF-κB reporter bioluminescent signal daily starting at day 10 post-tumor cell injection until sacrifice. […] Data were analyzed using Living Image v.4.2 (Perkin-Elmer, Waltham, MA) as described previously (9, 10, 15, 15, 22, 29, 39). […]

[4] = system: IKKβ; test: immunoblots of mouse BMDM exposed to VCAN; type: cell-based; settings: primary murine BMDM, recombinant human versican 1 nM
From the text: as §1, with “mice. Shown are immunoblots (I), Vcan mRNA expression (J), and data summaries (K, L) and representative photographic and bioluminescent images (M) taken 14 days post-tumor cells. (I, J) n=5/group; (K-M) n=16/group; P, probability, unpaired Student's t-test.” for “mice.”

[5] = system: NF-κB; test: NF-κB reporter response of pNGL RAW264.7 macrophages to tumor-conditioned media with bortezomib pre-treatment; type: cell-based, murine; settings: pre-treatment 1 μg/mL (3 μM) for 1 hour
Method: FIG. 3. Tumor-secreted factors drive IKKβ activation, differentiation, and IL-1β secretion in macrophages. (A) Color-coded cancer cells with Kras mutation status. (B-E) Bioluminescent images with pseudocolor scale (B, E), immunoblots (C), and data summaries (D, E) from exposure of RAW264.7 macrophages stably expressing pNGL (B-D) and murine bone marrow derived macrophages (BMDM) obtained from NGL mice after one-week 100 ng/ml M-CSF exposure (E) to cell-free tumor-conditioned media or DMEM (white boxes) with or without bortezomib pre-treatment (1 μg/mL˜3 µM for 1 hour). (D, E) n=5/group; P, probability, one or two-way ANOVA; **** and ####, P<0.0001 compared with other groups or saline-treated cells, respectively, Bonferroni post-tests. (F) Flow cytometry-assessed differentiation marker expression of murine bone marrow cells before (day 0) and after (day 7) one-week M-CSF exposure. (G) Microarray strategy and top-five differentially expressed genes (ΔGE) of murine BMDM compared with cancer cells (ΔGE1) and of tumor-conditioned BMDM compared with naïve BMDM (ΔGE2). n=5/group; P, probability, one-way ANOVA. (H) Bioluminescent images and data summary of NGL, NGL; Tnf−/−, and NGL;Il1b−/− mice 14 days post-pleural injection of LLC cells. n=13/group; P, probability, one-way ANOVA; ** and ***, P<0.01 and P<0.001, respectively, compared with NGL mice, Bonferroni post-tests. […]

canakinumab: anti-IL-1β neutralizing monoclonal antibody
trial outcome [1]: negative
effect against incident lung cancer [2]: strong protective effects against incident lung cancer

VCAN: recombinant human active versican, TLR2 ligand glycoprotein
macrophage NF-κB-driven transcription [3]: potently activates macrophage NF-κB-driven transcription to the same degree as the TLR4 ligand lipopolysaccharide (LPS)
IKKβ induction [4]: induced IKKβ in primary murine BMDM

CC(C)C[C@H](NC(=O)[C@H](Cc1ccccc1)NC(=O)c1cnccn1)B(O)O [bortezomib]
NF-κB response to KrasMUT tumor-conditioned media [5]: attenuated
